Test results taken from PubChem BioAssay AID248 (DTP/NCI, 2004).
“And” between values parts separate entries of the source, which are not always exact repeats. Equal entries are not always repeated. Toxic doses and inconclusive results are not listed.

Tested on: L1210 leukemia ip in BDF1 mice, survival T/C
Experiment: NCI In Vivo Anticancer Drug Screen. Data for tumor model L1210 Leukemia (intraperitoneal) in B6D2F1 (BDF1) mice
Details: endpoint: mean survival time, higher = longer survival
How it was run: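 Transplantable tumor model; survival measured in treated vs vehicle control mice. Value = treated/control.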

[1] = dose: 100.0 mg/kg/injection, schedule: Q04DX003 (ip), vehicle: saline with Tween-80
[2] = dose: 200.0 mg/kg/injection, schedule: Q04DX003 (ip), vehicle: saline with Tween-80
[3] = dose: 400.0 mg/kg/injection, schedule: Q04DX003 (ip), vehicle: saline with Tween-80
[4] = dose: 100.0 mg/kg/injection, schedule: Q01DX001 (ip), vehicle: saline
[5] = dose: 200.0 mg/kg/injection, schedule: Q01DX001 (ip), vehicle: saline
[6] = dose: 400.0 mg/kg/injection, schedule: Q01DX001 (ip), vehicle: saline
[7] = dose: 50.0 mg/kg/injection, schedule: Q01DX009 (ip), vehicle: saline with Tween-80
[8] = dose: 100.0 mg/kg/injection, schedule: Q01DX001 (ip), vehicle: saline with Tween-80
[9] = dose: 100.0 mg/kg/injection, schedule: Q01DX009 (ip), vehicle: saline with Tween-80
[10] = dose: 100.0 mg/kg/injection, schedule: Q04DX003 (ip), vehicle: saline
[11] = dose: 200.0 mg/kg/injection, schedule: Q01DX009 (ip), vehicle: saline with Tween-80
[12] = dose: 200.0 mg/kg/injection, schedule: Q04DX003 (ip), vehicle: saline
[13] = dose: 50.0 mg/kg/injection, schedule: Q01DX Z (ip), vehicle: methylcellulose (MC)

`COc1cc2ccc3c(c2cc1OC)CCc1cnoc1-3` was tested, and the T/C [1] was 95 % of control, the T/C [2] was 98 % of control and the T/C [3] was 98 % of control.
`CCCCC(=O)CCl` was tested, and the T/C [4] was 103 % of control, the T/C [5] was 120 % of control and the T/C [6] was 114 % of control.
In the case of `CCC(C)(C)NC1=C(Cl)C(=O)c2ccccc2C1=O`, the T/C (dose: 6.25 mg/kg/injection, schedule: Q01DX001 (ip), vehicle: saline with Tween-80) is reported as 95 % of control and the T/C (dose: 12.5 mg/kg/injection, schedule: Q01DX001 (ip), vehicle: saline with Tween-80) is reported as 106 % of control.
In the case of `CCOC(=O)N1CCN(C(=S)[S-])CC1.CCOC(=O)N1CCN(C(=S)[S-])CC1.[Zn]`, the T/C (dose: 150.0 mg/kg/injection, schedule: Q01DX001 (ip), vehicle: saline) is reported as 86 % of control and the T/C (dose: 300.0 mg/kg/injection, schedule: Q01DX001 (ip), vehicle: saline) is reported as 87 % of control.
In the case of `CC(C)(C)COC(=O)C(C)(C)C`, the T/C [4] is reported as 117 % of control, the T/C [5] is reported as 112 % of control and the T/C [6] is reported as 102 % of control.
`CCC1([N+](=O)[O-])COCOC1` was tested, and the T/C (dose: 6.25 mg/kg/injection, schedule: Q04DX003 (ip), vehicle: Klucel (hydroxypropylcellulose) (HPC)) was 96 % of control, the T/C (dose: 12.5 mg/kg/injection, schedule: Q04DX003 (ip), vehicle: Klucel (hydroxypropylcellulose) (HPC)) was 111 % of control and the T/C (dose: 25.0 mg/kg/injection, schedule: Q04DX003 (ip), vehicle: Klucel (hydroxypropylcellulose) (HPC)) was 96 % of control and 111 % of control.
`COc1ccc(C(C)=O)cc1OCc1ccccc1` was tested, and the T/C (dose: 100.0 mg/kg/injection, schedule: Q01DX009 (ip), vehicle: water) was 112 % of control, the T/C (dose: 100.0 mg/kg/injection, schedule: Q04DX003 (ip), vehicle: water) was 98 % of control and the T/C (dose: 200.0 mg/kg/injection, schedule: Q01DX009 (ip), vehicle: water) was 108 % of control. For the same compound, the T/C (dose: 200.0 mg/kg/injection, schedule: Q04DX003 (ip), vehicle: water) was 100 % of control, the T/C (dose: 400.0 mg/kg/injection, schedule: Q01DX009 (ip), vehicle: water) was 103 % of control and the T/C (dose: 400.0 mg/kg/injection, schedule: Q04DX003 (ip), vehicle: water) was 93 % of control.
In the case of `NC(=O)c1ccccc1NC(=O)CCCOc1ccccc1`, the T/C (dose: 100.0 mg/kg/injection, schedule: Q01DX001 (ip), vehicle: Klucel (hydroxypropylcellulose) (HPC)) is reported as 100 % of control, the T/C (dose: 100.0 mg/kg/injection, schedule: Q04DX003 (ip), vehicle: Klucel (hydroxypropylcellulose) (HPC)) is reported as 94 % of control and the T/C (dose: 200.0 mg/kg/injection, schedule: Q01DX001 (ip), vehicle: Klucel (hydroxypropylcellulose) (HPC)) is reported as 93 % of control. The T/C (dose: 200.0 mg/kg/injection, schedule: Q04DX003 (ip), vehicle: Klucel (hydroxypropylcellulose) (HPC)) was 97 % of control and the T/C (dose: 400.0 mg/kg/injection, schedule: Q01DX001 (ip), vehicle: Klucel (hydroxypropylcellulose) (HPC)) was 96 % of control.
With `COC(=O)N1c2ccccc2C=CC1C#N` (centres undefined) the T/C (dose: 44.0 mg/kg/injection, schedule: Q04DX002 (ip), vehicle: saline with Tween-80) was 151 % of control, the T/C (dose: 44.0 mg/kg/injection, schedule: Q04DX003 (ip), vehicle: saline with Tween-80) was 109 % of control and the T/C (dose: 44.0 mg/kg/injection, schedule: Q04DX003 (ip), vehicle: saline) was 108 % of control. For the same compound, the T/C [7] was 104 % of control, the T/C (dose: 66.0 mg/kg/injection, schedule: Q04DX002 (ip), vehicle: saline with Tween-80) was 173 % of control and the T/C (dose: 66.0 mg/kg/injection, schedule: Q04DX003 (ip), vehicle: saline with Tween-80) was 103 % of control. The T/C (dose: 66.0 mg/kg/injection, schedule: Q04DX003 (ip), vehicle: saline) was 101 % of control, the T/C [8] was 106 % of control and the T/C [9] was 96 % of control. The T/C (dose: 100.0 mg/kg/injection, schedule: Q04DX002 (ip), vehicle: saline with Tween-80) was 189 % of control, the T/C [1] was 109 % of control and 209 % of control and the T/C [10] was 106 % of control. For the same compound, the T/C (dose: 200.0 mg/kg/injection, schedule: Q01DX001 (ip), vehicle: saline with Tween-80) was 106 % of control, the T/C [11] was 102 % of control and the T/C (dose: 200.0 mg/kg/injection, schedule: Q04DX002 (ip), vehicle: saline with Tween-80) was 156 % of control. The T/C [12] was 111 % of control, the T/C (dose: 400.0 mg/kg/injection, schedule: Q01DX001 (ip), vehicle: saline with Tween-80) was 104 % of control and the T/C [3] was 96 % of control.
`CCC(C)NNC(C)CC` (centres undefined) was tested, and the T/C (dose: 75.0 mg/kg/injection, schedule: Q01DX001 (ip), vehicle: other) was 98 % of control, the T/C (dose: 150.0 mg/kg/injection, schedule: Q01DX001 (ip), vehicle: other) was 112 % of control and the T/C (dose: 300.0 mg/kg/injection, schedule: Q01DX001 (ip), vehicle: other) was 103 % of control.
In the case of `NC1=NC(CNC(=O)c2cccc([N+](=O)[O-])c2)N(c2cccc(Cl)c2)C(N)=N1` (centres undefined), the T/C [13] is reported as 93 % of control.
With `CC(=O)Oc1cn(Cc2ccccc2)c2c1C(=O)CC(C)C2` (centres undefined) the T/C (dose: 50.0 mg/kg/injection, schedule: Q04DX002 (ip), vehicle: Klucel (hydroxypropylcellulose) (HPC)) was 108 % of control, the T/C (dose: 100.0 mg/kg/injection, schedule: Q04DX002 (ip), vehicle: Klucel (hydroxypropylcellulose) (HPC)) was 94 % of control and the T/C (dose: 200.0 mg/kg/injection, schedule: Q04DX002 (ip), vehicle: Klucel (hydroxypropylcellulose) (HPC)) was 102 % of control.
In the case of `NCCS(=O)c1ccccc1` (centres undefined), the T/C [10] is reported as 96 % of control, the T/C [12] is reported as 96 % of control and the T/C (dose: 400.0 mg/kg/injection, schedule: Q04DX003 (ip), vehicle: saline) is reported as 113 % of control.
`C[C@@H]1C[C@@]2(C)[C@@H](CC[C@@H]3[C@@H]2CC[C@]2(C)[C@@H](O)CC[C@@H]32)CC1=O` was tested, and the T/C (dose: 100.0 mg/kg/injection, schedule: Q01DX Z (sc), vehicle: steriod suspending solution) was 105 % of control, the T/C (dose: 200.0 mg/kg/injection, schedule: Q01DX Z (sc), vehicle: steriod suspending solution) was 108 % of control and the T/C (dose: 400.0 mg/kg/injection, schedule: Q01DX Z (sc), vehicle: steriod suspending solution) was 105 % of control. For the same compound, the T/C (dose: 800.0 mg/kg/injection, schedule: Q01DX Z (sc), vehicle: steriod suspending solution) was 105 % of control.
For `CCCCN(CCCC)C(=N)OC1CCCCC1`, the T/C (dose: 8.8 mg/kg/injection, schedule: Q01DX Z (ip), vehicle: methylcellulose (MC)) was 93 % of control, the T/C (dose: 13.3 mg/kg/injection, schedule: Q01DX Z (ip), vehicle: methylcellulose (MC)) was 91 % of control and the T/C (dose: 20.0 mg/kg/injection, schedule: Q01DX Z (ip), vehicle: methylcellulose (MC)) was 97 % of control.
`CSCSCC(CO)NCc1ccccc1` (centres undefined) was tested, and the T/C (dose: 50.0 mg/kg/injection, schedule: Q01DX009 (ip), vehicle: saline) was 110 % of control, the T/C [4] was 97 % of control and the T/C (dose: 100.0 mg/kg/injection, schedule: Q01DX009 (ip), vehicle: saline) was 104 % of control. For the same compound, the T/C [5] was 100 % of control.
For `Nc1nc(SCc2ccccc2Cl)cc(C(=O)O)n1`, the T/C [13] was 102 % of control.
`C(=C/c1ccccc1)/C[P+](c1ccccc1)(c1ccccc1)c1ccccc1` was tested, and the T/C (dose: 1.25 mg/kg/injection, schedule: Q01DX009 (ip), vehicle: saline with Tween-80) was 97 % of control, the T/C (dose: 2.5 mg/kg/injection, schedule: Q01DX009 (ip), vehicle: saline with Tween-80) was 94 % of control and the T/C (dose: 5.0 mg/kg/injection, schedule: Q01DX009 (ip), vehicle: saline with Tween-80) was 98 % of control. The T/C (dose: 5.0 mg/kg/injection, schedule: Q04DX003 (ip), vehicle: saline with Tween-80) was 98 % of control, the T/C (dose: 10.0 mg/kg/injection, schedule: Q04DX003 (ip), vehicle: saline with Tween-80) was 86 % of control and the T/C (dose: 20.0 mg/kg/injection, schedule: Q04DX003 (ip), vehicle: saline with Tween-80) was 90 % of control.
`CC1=C(C)C(=O)C(SC2CC(=O)OC2=O)=C(C)C1=O` (centres undefined) was tested, and the T/C [8] was 88 % of control.
`O/N=C1/C=C(c2ccccc2)C(O)(c2ccccc2)C1` (centres undefined) was tested, and the T/C [1] was 102 % of control, the T/C [2] was 96 % of control and the T/C [3] was 93 % of control.
With `CN(C)/N=C(\CBr)c1ccc(Br)cc1` the T/C [7] was 96 % of control, the T/C [9] was 107 % of control and the T/C [11] was 89 % of control.
With `COC(=O)C(=C/C=C/c1cc(O)c(O)c(O)c1)C(=O)OC` the T/C (dose: 50.0 mg/kg/injection, schedule: Q01DX001 (ip), vehicle: other) was 104 % of control, the T/C (dose: 100.0 mg/kg/injection, schedule: Q01DX001 (ip), vehicle: other) was 98 % of control and the T/C (dose: 200.0 mg/kg/injection, schedule: Q01DX001 (ip), vehicle: other) was 95 % of control.
For `COC(=O)CCCCCCCCC(C)c1ccc(C(C)=O)cc1` (centres undefined), the T/C [9] was 95 % of control, the T/C [1] was 99 % of control and the T/C [11] was 87 % of control. The T/C [2] was 95 % of control, the T/C (dose: 400.0 mg/kg/injection, schedule: Q01DX009 (ip), vehicle: saline with Tween-80) was 96 % of control and the T/C [3] was 89 % of control.
